Structures can show the parent of a compound that is named as a salt.
Key:
[1] = mediated by alpha2 and I1 receptors; Ernsberger et al.; cited from earlier work
imidazoline I1 receptor = conditions: Ernsberger et al, Eur. J. Pharmacol. 134, 1, 1987; cited from earlier work
[2] = test system: adrenergic alpha2 receptor; conditions: Ernsberger et al, Eur. J. Pharmacol. 134, 1, 1987; cited from earlier work
rNHE3 = biological target: T1, rNHE3 (Rattus norvegicus, UniProt P26433); test: Recovery of intracellular pH after acidification (BCECF fluorescence) in LAP1 fibroblasts; format: cell-based
T1 construct: expressed in transfected cells; host or cells: LAP1 cells (fibroblasts)
Description: In this test, the recovery in the intracellular pH (pHi) after an acidification was ascertained, which is initiated if the NHE3 is capable of functioning, even under bicarbonate-free conditions. For this purpose, the pHi was determined using the pH-sensitive fluorescent dye BCECF (Calbiochem, the precursor BCECF-AM is employed). The cells (fibroblasts, LAP1 cells) were initially loaded with BCECF. The BCECF fluorescence was determined in a “Ratio Fluorescence Spectrometer” (Photon Technology International, South Brunswick, N.J., USA) at excitation wavelengths of 505 and 440 nm and an emission wavelength of 535 nm and converted into the pHi using calibration curves. The cells were incubated in NH4Cl buffer (pH 7.4) (NH4Cl buffer: 115 mM NaCl, 20 mM NH4Cl, 5 mM KCl, 1 mM CaCl2, 1 mM MgSO4, 20 mM Hepes, 5 mM glucose, 1 mg/ml BSA; a pH of 7.4 is adjusted with 1 M NaOH) even during the BCECF loading. The intracellular acidification was induced by adding 975 μl of an NH4Cl-free buffer (see below) to 25 μl aliquots of the cells incubated in NH4Cl buffer. The subsequent rate of pH recovery was recorded for three minutes. To calculate the inhibitory potency of the tested substances, the cells were initially investigated in buffers with which a complete or absolutely no pH recovery took place. For complete pH recovery (100%), the cells were incubated in Na^+-containing buffer (133.8 mM NaCl, 4.7 mM KCl, 1.25 mM CaCl2, 1.25 mM MgCl2, 0.97 mM Na2HPO4, 0.23 mM NaH2PO4, 5 mM Hepes, 5 mM glucose, a pH of 7.0 is adjusted with 1 M NaOH). To determine the 0% value, the cells were incubated in an Na^+-free buffer (133.8 mM choline chloride, 4.7 mM KCl, 1.25 mM CaCl2, 1.25 mM MgCl2, 0.97 mM K2HPO4, 0.23 mM KH2PO4, 5 mM Hepes, 5 mM glucose, a pH of 7.0 is adjusted with 1 M KOH). The substances to be tested were made up in the Na^+-containing buffer. The recovery of the intracellular pH at each test concentration of a substance was expressed as a percentage of the maximum recovery. The IC50 value for the particular substance for the individual NHE subtypes was calculated from the pH recovery percentages using the Sigma-Plot program.

NHE3 = conditions: M. Donowitz et al., Am. J. Physiol. 276; cited from earlier work

T1 sequence (P26433 29-831): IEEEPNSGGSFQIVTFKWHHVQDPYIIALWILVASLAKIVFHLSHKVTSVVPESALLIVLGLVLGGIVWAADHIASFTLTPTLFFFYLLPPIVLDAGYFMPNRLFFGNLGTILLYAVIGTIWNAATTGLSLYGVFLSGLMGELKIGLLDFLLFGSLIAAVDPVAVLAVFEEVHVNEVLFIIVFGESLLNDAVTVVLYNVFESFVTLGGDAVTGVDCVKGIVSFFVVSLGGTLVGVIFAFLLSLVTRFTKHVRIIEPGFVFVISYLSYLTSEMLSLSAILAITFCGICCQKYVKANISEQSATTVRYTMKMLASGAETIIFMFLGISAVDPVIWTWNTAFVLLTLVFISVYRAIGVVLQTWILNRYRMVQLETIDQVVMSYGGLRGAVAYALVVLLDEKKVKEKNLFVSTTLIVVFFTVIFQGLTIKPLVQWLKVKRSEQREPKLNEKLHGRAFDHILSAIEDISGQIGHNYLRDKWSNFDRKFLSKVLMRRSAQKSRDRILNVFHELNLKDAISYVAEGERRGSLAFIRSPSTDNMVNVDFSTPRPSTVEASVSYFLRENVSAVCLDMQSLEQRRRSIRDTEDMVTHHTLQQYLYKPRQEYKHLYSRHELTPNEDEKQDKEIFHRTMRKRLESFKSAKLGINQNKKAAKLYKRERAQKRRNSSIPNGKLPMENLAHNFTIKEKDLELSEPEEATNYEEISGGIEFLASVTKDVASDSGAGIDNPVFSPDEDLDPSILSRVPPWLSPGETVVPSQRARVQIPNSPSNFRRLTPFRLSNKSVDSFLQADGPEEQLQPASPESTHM

SMILES	IC50 (rNHE3) [µM]	further results
Clc1cccc(Cl)c1N=C1NCCN1 [Clonidine]	–	blood pressure-lowering effect [1]: strong blood pressure-lowering effect; affinity for the imidazoline I1 receptor (imidazoline I1 receptor): high affinity; affinity for the adrenergic alpha2 receptor [2]: high affinity
CN(c1nc2cc(F)ccc2[nH]1)c1c(Cl)cccc1Cl [Example 4, (2,6-Dichlorophenyl)(5-fluoro-1H-benzoimidazol-2-yl)methylamine]	3.3	–
CC(C)[C@@H](CC[C@@H](C)[C@H]1CC[C@H]2[C@@H]3[C@H](O)C[C@H]4C[C@@H](NCCCNCCCCN)CC[C@]4(C)[C@H]3CC[C@]12C)OS(=O)(=O)O [Squalamine]	–	time to maximum strength of effect as NHE3 inhibitor (NHE3): only after one hour

Second part, led by results:

IC50 (rNHE3) [µM]	SMILES	further results
0.57	CCN(c1nc2ccccc2[nH]1)c1c(Cl)cccc1Cl [Example 1, (1H-Benzoimidazol-2-yl)(2,6-dichlorophenyl)ethylamine]	–
0.53	CN(c1nc2ccccc2[nH]1)c1c(Cl)cccc1Cl [Example 2, (1H-Benzoimidazol-2-yl)(2,6-dichlorophenyl)methylamine hydrochloride]	–
9.3	CC(C)N(c1nc2ccccc2[nH]1)c1c(Cl)cccc1Cl [Example 3, (1H-Benzoimidazol-2-yl)(2,6-dichlorophenyl)isopropylamine]	–
1.5	C=CCN(c1nc2ccccc2[nH]1)c1c(Cl)cccc1Cl [Example 5, Allyl(1H-benzoimidazol-2-yl)(2,6-dichlorophenyl)amine]	–
8.3	Clc1cccc(Cl)c1N(c1nc2ccccc2[nH]1)C1CCCC1 [Example 6, (1H-Benzoimidazol-2-yl)cyclopentyl(2,6-dichlorophenyl)amine]	–
